Source: patent US5342947A, “Preparation of water soluble camptothecin derivatives” (Glaxo Inc., priority 1992, dated 1994)
Like-named read-outs stand apart in the source and are kept apart here.

Columns and labels:
[1] = target: T1, topoisomerase Type I (Bos taurus, UniProt F1MN93); experiment: Cleavable Complex in vitro Assay (topoisomerase Type I inhibitory activity); type: biochemical
T1 sequence (F1MN93 1-767): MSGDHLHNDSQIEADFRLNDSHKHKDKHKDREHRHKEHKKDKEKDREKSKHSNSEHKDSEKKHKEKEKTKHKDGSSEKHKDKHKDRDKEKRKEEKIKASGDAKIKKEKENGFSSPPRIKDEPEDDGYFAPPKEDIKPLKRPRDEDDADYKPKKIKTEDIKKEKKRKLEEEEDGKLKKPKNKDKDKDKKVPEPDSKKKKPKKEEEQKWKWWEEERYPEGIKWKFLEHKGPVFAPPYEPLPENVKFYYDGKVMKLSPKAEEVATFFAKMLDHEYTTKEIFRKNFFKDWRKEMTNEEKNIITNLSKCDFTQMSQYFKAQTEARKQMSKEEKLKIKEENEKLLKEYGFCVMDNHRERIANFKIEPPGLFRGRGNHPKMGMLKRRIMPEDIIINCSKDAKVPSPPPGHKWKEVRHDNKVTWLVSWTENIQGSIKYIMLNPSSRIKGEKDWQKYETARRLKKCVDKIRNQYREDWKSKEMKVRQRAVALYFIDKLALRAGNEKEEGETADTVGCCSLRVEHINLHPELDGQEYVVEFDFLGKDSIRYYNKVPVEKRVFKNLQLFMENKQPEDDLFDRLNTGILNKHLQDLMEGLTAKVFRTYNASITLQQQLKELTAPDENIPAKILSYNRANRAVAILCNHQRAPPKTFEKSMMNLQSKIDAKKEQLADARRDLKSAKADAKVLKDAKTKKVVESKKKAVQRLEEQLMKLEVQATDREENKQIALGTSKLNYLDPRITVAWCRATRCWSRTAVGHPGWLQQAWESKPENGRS
Text: This assay performed according to the method described in Hsiang, Y. et al., J. Biol. Chem., 260:14873-14878 (1985), correlates well with in vivo anti-tumor activity of topoisomerase inhibitors in animal models of cancer, e.g., camptothecin and its analogs. See Hsiang et al., Cancer Research, 49:4385-4389 (1989) and Jaxel et al., Cancer Research, 49:1465-1469 (1989).
The term "IC50 " means the concentration of a compound of formula (I) at which 50% of the DNA substrate has been captured by topoisomerase I.

[2] = in words, background; cited from earlier work
[3] = Wani et al., J. Med. Chem. 29, 2358 (1986) and 30, 2317 (1987); cited from earlier work
[4] = system: HT-29 human colon tumor; experiment: Human Colorectal Adenocarcinoma HT-29 Xenograft in vivo Assay; parameters: species or system human tumor xenograft in female NU/NU mice; conditions: for tumor wt day 50 / tumor wt day 14: s.c. twice a week for 5 weeks; for effect on tumor (stasis / regression): after 5 weeks of dosing, day 50 vs day 14, ratio 1 = stasis, <1 = regression
Procedure: Female NU/NU mice weighing 21±2 g, are used for this modified version of the test described by B. C. Giovanella, et al., Science, 246 1046 (1989). Control and test animals are injected subcutaneously in the sub-scapular region with a suspension of 10^6 viable HT-29 human colon tumor cells on day 0. Tumors are allowed to grow for 2 weeks prior to drug administration. For each drug, several doses are chosen based on its in vitro activity against topoisomerase I. Each dose level group contains 8 animals. The test compounds are prepared in either 0.1M acetate buffer, pH 5 (vehicle "a") or 87.5% phosphate buffered saline, 12.375% dimethylsulfoxide, and 0.125% Tween 80 (trademark of ICI America for polyoxyethylenesorbitan monooleate) (vehicle "b") and are administered subcutaneously twice a week for 5 weeks beginning on day 14. Doses are given on a mg/kg basis according to the mean body weight for each cage.
Tumor weight is calculated from two perpendicular caliper measurements of the tumor using the formula, tumor weight=length×width^2 […] in millimeters. For each animal, tumor weight is monitored over the course of the experiment. For each group, the results are expressed as the ratio of the mean tumor weight immediately after 5 weeks of treatment (day 50) divided by the mean tumor weight immediately before treatment (day 14). […] The criterion for antitumor activity is at least 50% inhibition of tumor growth after 5 weeks of dosing (day 50), giving a ratio of less than or equal to […].

[5] = system: certain solid tumors; conditions: laboratory animals; cited from earlier work
[6] = system: leukemia (L-1210); conditions: laboratory animals; cited from earlier work
[7] = Cleavable Complex Assay, read-out: Relative IC50 (concentration at which 50% of the DNA substrate has been captured by topoisomerase I)

For CCC1(O)C(=O)OCc2c1cc1n(c2=O)Cc2c-1nc1cc3c(cc1c2CN(C)C)OCO3 (racemic) [Example 1], the IC50 ([1]; read-out: Relative IC50 (concentration at which 50% of the DNA substrate has been captured by topoisomerase I), Cleavable Complex Assay) was less than 500 nM.
Work on CCC1(O)C(=O)OCc2c1cc1n(c2=O)Cc2c-1nc1cc3c(cc1c2CN1CCOCC1)OCCO3 (racemic) [Example 5, 7-Morpholinomethylene-10,11-ethylenedioxy-20(R,S)-camptothecin] yielded an IC50 [1] of less than 500 nM.
With CCC1(O)C(=O)OCc2c1cc1n(c2=O)Cc2c-1nc1cc3c(cc1c2CN1CCCC1)OCCO3 (racemic) [Example 7, 7-Pyrrolidinomethylene-10,11-ethylenedioxy-20(R,S)-camptothecin] the IC50 [1] was 1000 to 2000 nM.
Molecule CCC1(O)C(=O)OCc2c1cc1n(c2=O)Cc2c-1nc1cc3c(cc1c2CN1CCCCC1)OCO3 (racemic) [Example 8, 7-Piperidinomethylene-10,11-methylenedioxy-20(R,S)-camptothecin] has an IC50 [1] greater than 2000 nM.
CCC1(O)C(=O)OCc2c1cc1n(c2=O)Cc2c-1nc1cc3c(cc1c2CN1CCCCC1)OCCO3 (racemic) [Example 9, 7-Piperidinomethylene-10, 11-ethylenedioxy-20(R,S)-camptothecin] gave an IC50 [1] of 500 to 1000 nM.
Molecule CCC1(O)C(=O)OCc2c1cc1n(c2=O)Cc2c-1nc1cc3c(cc1c2CN1CCN(C)CC1)OCCO3 (racemic) [Example 10, 7-(4-methylpiperazinomethylene)-10, 11-ethylenedioxy-20(R,S)-camptothecin] has an IC50 [1, 7] of 500 to 1000 nM.
Work on CCN(CC)Cc1c2c(nc3cc4c(cc13)OCCO4)-c1cc3c(c(=O)n1C2)COC(=O)C3(O)CC (racemic) [Example 13, 7-Diethylaminomethylene-10, 11-ethylenedioxy-20(R,S)-camptothecin] yielded an IC50 [1] of 500 to 1000 nM.
Molecule CCC1(O)C(=O)OCc2c1cc1n(c2=O)Cc2c-1nc1cc3c(cc1c2CN(C)CCO)OCO3 (racemic) [Example 15, 7-N-Methylethanolaminomethylene-10, 11-methylenedioxy-20(R,S)-camptothecin] has an IC50 [1] of 1000 to 2000 nM.
With CCC1(O)C(=O)OCc2c1cc1n(c2=O)Cc2c-1nc1cc3c(cc1c2CN(C)CCO)OCCO3 (racemic) [Example 16, 7-N-Methylethanolaminomethylene-10, 11-ethylenedioxy-20(R,S)-camptothecin] the IC50 [1] was 1000 to 2000 nM.
With CCC1(O)C(=O)OCc2c1cc1n(c2=O)Cc2c-1nc1cc3c(cc1c2CN(CCO)CCO)OCCO3 (racemic) [Example 17, 7-Diethanolaminomethylene-10, 11-ethylenedioxy-20(R,S)-camptothecin] the IC50 [1] was less than 500 nM.
CCC1(O)C(=O)OCc2c1cc1n(c2=O)Cc2c-1nc1cc3c(cc1c2CN1CCC1)OCO3 (racemic) [Example 19, 7-Azetidinomethylene-10, 11-methylenedioxy-20(R,S)-camptothecin] showed an IC50 [1] of 1000 to 2000 nM.
For CCC1(O)C(=O)OCc2c1cc1n(c2=O)Cc2cc3cc4c(cc3nc2-1)OCO4 (centres unmarked) [10, 11-methylenedioxycamptothecin], the “solubility in water / physiologically compatible, aqueous media” value [2] is given as “as poor as camptothecin” and the “potency relative to unsubstituted camptothecin” value [3] is given as “more potent than unsubstituted camptothecin”.
With CC[C@@]1(O)C(=O)OCc2c1cc1n(c2=O)Cc2c-1nc1cc3c(cc1c2CN(C)C)OCO3 [Example 2, 7-Dimethylaminomethylene-10, 11-methylenedioxy-20(S)-camptothecin] the IC50 [1] was less than 500 nM and the “tumor wt day 50 / tumor wt day 14” value ([4]; 0.8 mg/kg (optimal dose), vehicle b (PBS/DMSO/Tween 80), vehicle control 21.8) was 1.8.
With CC[C@@]1(O)C(=O)OCc2c1cc1n(c2=O)Cc2c-1nc1cc3c(cc1c2CN(C)C)OCCO3 [Example 4, 7-Dimethylaminomethylene-10, 11-ethylenedioxy-20(S)-camptothecin] the IC50 [1] was 500 to 1000 nM, the “tumor wt day 50 / tumor wt day 14” value ([4]; 7.0 mg/kg (optimal dose), vehicle a (0.1M acetate buffer, pH 5), vehicle control 20.0) was 1.3 and the “tumor wt day 50 / tumor wt day 14” value ([4]; 7.0 mg/kg (optimal dose), vehicle b (PBS/DMSO/Tween 80), vehicle control 21.8) was 1.0. For the same molecule, the “effect on tumor (stasis / regression)” value [4] was “tumor stasis”.
With CC[C@@]1(O)C(=O)OCc2c1cc1n(c2=O)Cc2c-1nc1cc3c(cc1c2CN1CCOCC1)OCCO3 [Example 6, 7-Morpholinomethylene-10,11-ethylenedioxy-20(S)-camptothecin] the IC50 [1] was less than 500 nM, the “tumor wt day 50 / tumor wt day 14” value ([4]; 1.0 mg/kg (optimal dose), vehicle b (PBS/DMSO/Tween 80), vehicle control 21.8) was 1.0 and the “effect on tumor (stasis / regression)” value [4] was “tumor stasis”.
For CC[C@@]1(O)C(=O)OCc2c1cc1n(c2=O)Cc2c-1nc1cc3c(cc1c2CN1CCN(C)CC1)OCCO3 [Example 11, 7-(4-methylpiperazinomethylene)-10, 11-ethylenedioxy-20(S)-camptothecin], the IC50 [1, 7] was less than 500 nM, the “tumor wt day 50 / tumor wt day 14” value ([4]; 9.0 mg/kg (optimal dose), vehicle a (0.1M acetate buffer, pH 5), vehicle control 20.0) was 0.6 and the “effect on tumor (stasis / regression)” value [4] was “tumor regression”.
For CCN(CC)Cc1c2c(nc3cc4c(cc13)OCCO4)-c1cc3c(c(=O)n1C2)COC(=O)[C@]3(O)CC [Example 14, 7-Diethylaminomethylene-10, 11-ethylenedioxy-20(S)-camptothecin], the “tumor wt day 50 / tumor wt day 14” value ([4]; 2.0 mg/kg (optimal dose), vehicle a (0.1M acetate buffer, pH 5), vehicle control 20.0) was 2.0.
With CC[C@@]1(O)C(=O)OCc2c1cc1n(c2=O)Cc2c-1nc1cc3c(cc1c2CN1CCC1)OCO3 [Example 20, 7-Azetidinomethylene-10, 11-methylenedioxy-20(S)-camptothecin] the “tumor wt day 50 / tumor wt day 14” value ([4]; 1.5 mg/kg (optimal dose), vehicle a (0.1M acetate buffer, pH 5), vehicle control 20.0) was 1.5.
In the case of CC[C@@]1(O)C(=O)OCc2c1cc1n(c2=O)Cc2c-1nc1cc3c(cc1c2CN1CCC1)OCCO3 [Example 22, 7-Azetidinomethylene-10, 11-ethylenedioxy-20(S)-camptothecin], the “tumor wt day 50 / tumor wt day 14” value ([4]; 12.0 mg/kg (optimal dose), vehicle a (0.1M acetate buffer, pH 5), vehicle control 20.0) is reported as 1.6.
For CC[C@@]1(O)C(=O)OCc2c1cc1n(c2=O)Cc2c-1nc1cc3c(cc1c2CN1CCN(C)CC1)OCO3 [Example 23, 7-(4-Methylpiperazinomethylene)-10, 11-methylenedioxy-20(S)-camptothecin], the “tumor wt day 50 / tumor wt day 14” value ([4]; 3.0 mg/kg (optimal dose), vehicle a (0.1M acetate buffer, pH 5), vehicle control 20.0) was 0.5 and the “effect on tumor (stasis / regression)” value [4] was “tumor regression”.
For CC[C@@]1(O)C(=O)OCc2c1cc1n(c2=O)Cc2cc3ccccc3nc2-1 [camptothecin, Camptothecin], the “effectiveness in treatment of certain solid tumors” value [5] is listed as “effective” and the “effectiveness in treatment of leukemia (L-1210)” value [6] is listed as “effective”.
